Results from ChEMBL document CHEMBL1201862, “PubChem BioAssay data set” (2004).
Activity calls are given as the source filed them.

Experiments:
[1] = target: 72 kDa type IV collagenase (Homo sapiens, UniProt P08253); assay: Dose Response validation of uHTS RPN11 inhibitor hits using a MMP-2 Fluorescence assay.; format: functional
[2] = Trypanosoma cruzi growth suppression in host cells – NIH3T3 host cells, beta-gal luminescence, confirmation (AID 2044); format: functional, cell-based;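 further: intracellular parasites grown in NIH/3T3 mouse fibroblasts as host cells; luminescent beta-galactosidase reporter signal from transgenic T. cruzi replicating inside host cells; inhibitors lower the luminescence signal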
[3] = NIH3T3 cell viability loss – ATP luminescence, mouse fibroblasts, counter-screen, dose response (AID 2010); format: functional, cell-based;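 further: cells exposed to compound for about 90 hours before reading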
Streptococcus = assay: GAS UMAA2166 growth inhibition – luminescence, BacTiterGlo, counter-screen for streptokinase expression inhibitor project, dose response (AID 1915); format: functional, organism-based;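 further: potency for reduction of bacterial viability or growth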
[4] = target: 26S proteasome non-ATPase regulatory subunit 14 (Homo sapiens, UniProt O00487); assay: inhibition of proteasome subunit RPN11 – biochemical, fluorescence polarization, uHTS hits, confirmation (AID 602368); format: functional
[5] = test system: Streptococcus sp. 'group A'; assay: Streptococcus pyogenes SK(-)GAS viability under kanamycin – luminescence, BacTiterGlo, confirmation, counter-screen for streptokinase expression inhibitor project, dose response (AID 1900); format: functional, organism-based
Prothrombin = Prothrombin (Bos taurus, UniProt P00735); assay: thrombin protease inhibitors – biochemical, fluorescence polarization, uHTS hits, dose response (AID 602369); format: functional
[6] = target: T1, Glycogen synthase kinase-3 alpha (Homo sapiens, UniProt P49840); assay: Inhibition of Human GSK-3 alpha Activity Measured in Biochemical System Using Microfluidics - 2063-06_Inhibitor_Dose_DryPowder_Activity_Set2. [Related pubchem assays (depositor defined):AID2709]
T1 sequence (P49840 whole entry): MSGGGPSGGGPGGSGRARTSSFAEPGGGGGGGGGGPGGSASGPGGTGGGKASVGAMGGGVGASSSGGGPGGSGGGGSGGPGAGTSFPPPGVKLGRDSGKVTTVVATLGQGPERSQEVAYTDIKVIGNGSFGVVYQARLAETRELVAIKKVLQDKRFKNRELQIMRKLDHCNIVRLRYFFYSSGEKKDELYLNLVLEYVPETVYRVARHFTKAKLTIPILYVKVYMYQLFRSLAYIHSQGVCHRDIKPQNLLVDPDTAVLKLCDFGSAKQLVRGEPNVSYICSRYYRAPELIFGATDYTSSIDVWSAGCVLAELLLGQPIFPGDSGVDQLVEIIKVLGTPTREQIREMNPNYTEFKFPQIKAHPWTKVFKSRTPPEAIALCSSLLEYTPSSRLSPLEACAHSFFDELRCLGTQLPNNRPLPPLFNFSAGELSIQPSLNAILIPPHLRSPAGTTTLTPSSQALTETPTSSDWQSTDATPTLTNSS

[7] = target: T2, Low molecular weight phosphotyrosine protein phosphatase (Homo sapiens, UniProt P24666); format: functional; conditions: read-out: IC50_Mean
T2 sequence (P24666 whole entry): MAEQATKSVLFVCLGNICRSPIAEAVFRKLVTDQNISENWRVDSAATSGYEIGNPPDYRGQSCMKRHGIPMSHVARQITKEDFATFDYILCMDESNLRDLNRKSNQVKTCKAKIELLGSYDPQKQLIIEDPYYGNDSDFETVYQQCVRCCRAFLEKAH

cells = format: functional
[8] = target: T2, Low molecular weight phosphotyrosine protein phosphatase; format: functional; conditions: read-out: IC50_Mean; remark: listed apart in the source
[9] = target: Glycogen synthase kinase-3 beta (Homo sapiens, UniProt P49841); assay: Inhibition of Human GSK-3 beta Activity Measured in Biochemical System Using Microfluidics - 2063-05_Inhibitor_Dose_DryPowder_Activity_Set2. [Related pubchem assays (depositor defined):AID2709]
Sequence of Glycogen synthase kinase-3 beta (P49841 whole entry): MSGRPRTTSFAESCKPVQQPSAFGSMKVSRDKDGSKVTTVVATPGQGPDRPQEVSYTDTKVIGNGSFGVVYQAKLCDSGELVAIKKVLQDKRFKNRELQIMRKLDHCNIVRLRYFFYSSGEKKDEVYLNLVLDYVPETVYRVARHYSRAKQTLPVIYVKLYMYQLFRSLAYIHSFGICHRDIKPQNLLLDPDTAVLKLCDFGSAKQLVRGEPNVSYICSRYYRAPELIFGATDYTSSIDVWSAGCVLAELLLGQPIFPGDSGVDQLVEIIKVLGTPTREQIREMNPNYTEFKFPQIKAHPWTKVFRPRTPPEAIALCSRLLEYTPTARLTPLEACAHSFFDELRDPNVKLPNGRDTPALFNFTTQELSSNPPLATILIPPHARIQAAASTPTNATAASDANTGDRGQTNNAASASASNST

[10] = target: T3, High affinity choline transporter 1 (Homo sapiens, UniProt Q9GZV3); assay: human choline transporter potentiators, potency – cell-based, 10-point CRC, membrane potential dye, dose response (AID 602376); format: functional
T3 sequence (Q9GZV3 whole entry): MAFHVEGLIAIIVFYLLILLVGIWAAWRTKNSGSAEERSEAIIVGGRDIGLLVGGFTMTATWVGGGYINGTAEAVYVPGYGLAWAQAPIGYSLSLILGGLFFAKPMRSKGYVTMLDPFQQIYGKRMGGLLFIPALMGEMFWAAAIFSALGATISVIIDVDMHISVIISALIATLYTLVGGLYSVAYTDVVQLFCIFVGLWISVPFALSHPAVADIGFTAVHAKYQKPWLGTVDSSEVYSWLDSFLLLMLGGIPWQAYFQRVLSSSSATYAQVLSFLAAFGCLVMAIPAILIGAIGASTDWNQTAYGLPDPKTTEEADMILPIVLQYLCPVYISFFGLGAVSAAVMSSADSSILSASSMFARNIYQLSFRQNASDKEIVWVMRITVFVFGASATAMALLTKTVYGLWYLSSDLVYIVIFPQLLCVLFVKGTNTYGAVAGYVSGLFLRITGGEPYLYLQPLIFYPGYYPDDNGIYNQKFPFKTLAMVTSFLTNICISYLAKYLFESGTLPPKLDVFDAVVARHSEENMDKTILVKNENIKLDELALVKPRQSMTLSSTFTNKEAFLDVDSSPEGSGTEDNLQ

[11] = target: Sphingosine 1-phosphate receptor 4 (Homo sapiens, UniProt O95977); assay: Late-stage fluorescence-based dose-response cell-based counterscreen assay to identify agonists of the Sphingosine 1-Phosphate Receptor 3 (S1P3): Sphingosine 1-Phosphate Receptor 4 (S1P4) agonist assay.; format: functional
Sequence of Sphingosine 1-phosphate receptor 4 (O95977 whole entry): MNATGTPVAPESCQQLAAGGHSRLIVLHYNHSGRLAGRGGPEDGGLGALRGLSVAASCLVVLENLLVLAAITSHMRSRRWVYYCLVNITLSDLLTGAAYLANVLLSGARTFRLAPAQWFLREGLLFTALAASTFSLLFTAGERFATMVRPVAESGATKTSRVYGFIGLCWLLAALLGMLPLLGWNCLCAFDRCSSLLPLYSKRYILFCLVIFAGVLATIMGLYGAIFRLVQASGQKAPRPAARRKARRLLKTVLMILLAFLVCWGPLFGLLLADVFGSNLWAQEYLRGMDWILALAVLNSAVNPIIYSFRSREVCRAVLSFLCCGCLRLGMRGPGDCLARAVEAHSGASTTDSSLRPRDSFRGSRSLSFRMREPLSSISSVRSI

[12] = target: Sphingosine 1-phosphate receptor 2 (Homo sapiens, UniProt O95136); assay: Late-stage fluorescence-based dose-response cell-based counterscreen assay to identify agonists of the Sphingosine 1-Phosphate Receptor 3 (S1P3): Sphingosine 1-Phosphate Receptor 2 (S1P2) agonist assay.; format: functional
Sequence of Sphingosine 1-phosphate receptor 2 (O95136 whole entry): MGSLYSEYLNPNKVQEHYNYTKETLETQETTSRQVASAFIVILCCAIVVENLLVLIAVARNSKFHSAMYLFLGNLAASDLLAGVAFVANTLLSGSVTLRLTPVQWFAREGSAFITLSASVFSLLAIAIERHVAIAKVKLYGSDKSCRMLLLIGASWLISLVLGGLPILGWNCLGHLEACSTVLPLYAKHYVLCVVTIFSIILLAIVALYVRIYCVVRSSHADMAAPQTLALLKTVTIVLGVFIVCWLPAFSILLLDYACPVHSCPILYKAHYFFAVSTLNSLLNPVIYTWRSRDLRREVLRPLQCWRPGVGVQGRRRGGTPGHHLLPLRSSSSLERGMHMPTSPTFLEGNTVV

[13] = target: T4, DNA dC->dU-editing enzyme APOBEC-3G (Homo sapiens, UniProt Q9HC16); assay: SAR analysis of small molecule inhibitors of APOBEC3G DNA Deaminase via a fluorescence-based single-stranded DNA deaminase assay - Set 2.; format: functional; conditions: read-out: IC50_Mean
T4 sequence (Q9HC16 whole entry): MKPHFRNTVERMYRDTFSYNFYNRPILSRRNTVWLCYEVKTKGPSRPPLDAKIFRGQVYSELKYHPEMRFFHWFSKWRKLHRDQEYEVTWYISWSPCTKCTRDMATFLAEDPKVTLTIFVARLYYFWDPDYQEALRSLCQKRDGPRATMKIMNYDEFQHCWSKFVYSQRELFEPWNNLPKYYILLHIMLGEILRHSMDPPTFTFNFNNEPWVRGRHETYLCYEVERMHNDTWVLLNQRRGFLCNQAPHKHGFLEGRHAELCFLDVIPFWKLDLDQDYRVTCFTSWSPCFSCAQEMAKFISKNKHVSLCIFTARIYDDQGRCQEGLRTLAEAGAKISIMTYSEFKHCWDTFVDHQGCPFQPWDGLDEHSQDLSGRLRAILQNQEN

[14] = target: T5, DNA dC->dU-editing enzyme APOBEC-3A (Homo sapiens, UniProt P31941); assay: SAR analysis of small molecule inhibitors of APOBEC3A DNA Deaminase via a fluorescence-based single-stranded DNA deaminase assay - Set 2.; format: functional; conditions: read-out: IC50_Mean
T5 sequence (P31941 whole entry): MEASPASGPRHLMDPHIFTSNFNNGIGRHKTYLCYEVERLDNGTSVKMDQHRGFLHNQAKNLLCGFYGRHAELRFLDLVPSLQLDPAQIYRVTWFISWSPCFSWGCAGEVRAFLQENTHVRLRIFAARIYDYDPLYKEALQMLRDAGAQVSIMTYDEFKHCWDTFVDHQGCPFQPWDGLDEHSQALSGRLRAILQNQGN

[15] = target: T4, DNA dC->dU-editing enzyme APOBEC-3G; assay: inhibition of APOBEC3G ssDNA deamination – biochemical, fluorescence, single-stranded DNA substrate, SAR follow-up (AID 602136); format: functional; conditions: read-out: IC50_Mean
[16] = target: T5, DNA dC->dU-editing enzyme APOBEC-3A; assay: SAR analysis of small molecule inhibitors of APOBEC3A DNA Deaminase via a fluorescence-based single-stranded DNA deaminase assay.; format: functional; conditions: read-out: IC50_Mean
[17] = target: Fibroblast growth factor receptor 1 (Homo sapiens, UniProt P11362); format: functional
[18] = target: Calcium/calmodulin-dependent protein kinase type II subunit alpha (Homo sapiens, UniProt Q9UQM7); assay: Navigating the Kinome. Panel member name: CAMK2A; format: functional
[19] = target: Serine/threonine-protein kinase D3 (Homo sapiens, UniProt O94806); format: functional;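 further: determined within a kinase panel screen, with PRKCN as the panel member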
Sequence of Serine/threonine-protein kinase D3 (O94806 whole entry): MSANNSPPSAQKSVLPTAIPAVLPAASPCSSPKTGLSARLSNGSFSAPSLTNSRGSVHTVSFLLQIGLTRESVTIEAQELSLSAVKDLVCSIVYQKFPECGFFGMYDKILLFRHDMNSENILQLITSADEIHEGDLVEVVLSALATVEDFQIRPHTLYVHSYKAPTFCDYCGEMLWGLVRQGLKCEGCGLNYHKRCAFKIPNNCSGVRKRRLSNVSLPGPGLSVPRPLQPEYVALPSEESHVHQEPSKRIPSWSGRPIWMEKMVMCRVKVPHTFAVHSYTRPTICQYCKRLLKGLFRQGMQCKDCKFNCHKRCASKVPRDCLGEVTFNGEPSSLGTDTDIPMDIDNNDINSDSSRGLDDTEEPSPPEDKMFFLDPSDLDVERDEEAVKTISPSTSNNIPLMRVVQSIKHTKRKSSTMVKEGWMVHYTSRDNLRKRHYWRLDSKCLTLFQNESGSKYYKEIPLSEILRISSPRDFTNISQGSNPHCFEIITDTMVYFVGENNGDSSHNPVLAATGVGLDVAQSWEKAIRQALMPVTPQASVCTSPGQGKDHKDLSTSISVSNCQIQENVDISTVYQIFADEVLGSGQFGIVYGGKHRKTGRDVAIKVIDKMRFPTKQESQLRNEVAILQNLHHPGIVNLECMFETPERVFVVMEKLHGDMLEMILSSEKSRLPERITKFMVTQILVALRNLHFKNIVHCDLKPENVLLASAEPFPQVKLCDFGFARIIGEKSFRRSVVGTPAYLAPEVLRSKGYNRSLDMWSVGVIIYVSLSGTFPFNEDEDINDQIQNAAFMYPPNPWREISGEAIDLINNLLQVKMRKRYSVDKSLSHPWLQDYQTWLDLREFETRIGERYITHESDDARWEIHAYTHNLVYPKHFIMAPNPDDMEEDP

[20] = target: Tyrosine-protein kinase JAK3 (Homo sapiens, UniProt P52333); format: functional
[21] = target: T1, Glycogen synthase kinase-3 alpha; format: functional
[22] = target: Dual specificity tyrosine-phosphorylation-regulated kinase 1A (Homo sapiens, UniProt Q13627); format: functional;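 further: measured against DYRK1A as one member of a broad kinome profiling panel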
[23] = target: Dual specificity tyrosine-phosphorylation-regulated kinase 1B (Homo sapiens, UniProt Q9Y463); assay: Navigating the Kinome. Panel member name: DYRK1B; format: functional
LIM domain kinase 1 = LIM domain kinase 1 (Homo sapiens, UniProt P53667); assay: Navigating the Kinome. Panel member name: LIMK1; format: functional
[24] = target: G protein-coupled receptor kinase 5 (Homo sapiens, UniProt P34947); assay: Navigating the Kinome. Panel member name: GPRK5; format: functional
[25] = target: Serine/threonine-protein kinase PAK 4 (Homo sapiens, UniProt O96013); format: functional;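 further: value obtained within a kinome profiling panel in which PAK4 was one of the panel members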
[26] = target: Dual specificity protein kinase CLK4 (Homo sapiens, UniProt Q9HAZ1); format: functional
[27] = target: Mitogen-activated protein kinase 14 (Homo sapiens, UniProt Q16539); format: functional;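 further: part of a kinome-wide panel, MAPK14 entry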
Sequence of Mitogen-activated protein kinase 14 (Q16539 whole entry): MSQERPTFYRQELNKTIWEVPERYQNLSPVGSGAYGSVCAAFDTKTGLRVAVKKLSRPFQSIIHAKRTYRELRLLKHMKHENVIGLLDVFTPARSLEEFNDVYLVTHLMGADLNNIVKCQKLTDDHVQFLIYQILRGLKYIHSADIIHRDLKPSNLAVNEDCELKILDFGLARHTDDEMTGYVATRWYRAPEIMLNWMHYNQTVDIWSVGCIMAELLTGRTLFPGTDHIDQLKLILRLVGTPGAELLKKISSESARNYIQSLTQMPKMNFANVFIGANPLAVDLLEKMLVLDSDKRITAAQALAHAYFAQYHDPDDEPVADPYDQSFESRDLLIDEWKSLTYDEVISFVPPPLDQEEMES

[28] = target: Cyclin-dependent kinase 7 (Homo sapiens, UniProt P50613); format: functional;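 further: value comes from a kinome-wide kinase profiling panel in which CDK7 is one member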
Sequence of Cyclin-dependent kinase 7 (P50613 whole entry): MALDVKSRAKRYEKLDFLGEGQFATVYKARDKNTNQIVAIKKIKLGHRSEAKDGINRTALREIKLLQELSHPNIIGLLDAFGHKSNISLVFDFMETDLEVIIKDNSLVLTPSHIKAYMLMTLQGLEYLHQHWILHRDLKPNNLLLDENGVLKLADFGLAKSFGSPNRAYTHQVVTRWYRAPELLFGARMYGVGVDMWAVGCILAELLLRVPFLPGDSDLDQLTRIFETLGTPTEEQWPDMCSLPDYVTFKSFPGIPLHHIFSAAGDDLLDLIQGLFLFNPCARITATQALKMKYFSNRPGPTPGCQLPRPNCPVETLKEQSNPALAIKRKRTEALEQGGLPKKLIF

[29] = target: Dual specificity protein kinase CLK2 (Homo sapiens, UniProt P49760); format: functional
Activin receptor type-1 = Activin receptor type-1 (Homo sapiens, UniProt Q04771); assay: Navigating the Kinome. Panel member name: ACVR1; format: functional
Aurora kinase B = Aurora kinase B (Homo sapiens, UniProt Q96GD4); format: functional
[30] = target: Casein kinase I isoform alpha (Homo sapiens, UniProt P48729); format: functional
Sequence of Casein kinase I isoform alpha (P48729 whole entry, canonical isoform): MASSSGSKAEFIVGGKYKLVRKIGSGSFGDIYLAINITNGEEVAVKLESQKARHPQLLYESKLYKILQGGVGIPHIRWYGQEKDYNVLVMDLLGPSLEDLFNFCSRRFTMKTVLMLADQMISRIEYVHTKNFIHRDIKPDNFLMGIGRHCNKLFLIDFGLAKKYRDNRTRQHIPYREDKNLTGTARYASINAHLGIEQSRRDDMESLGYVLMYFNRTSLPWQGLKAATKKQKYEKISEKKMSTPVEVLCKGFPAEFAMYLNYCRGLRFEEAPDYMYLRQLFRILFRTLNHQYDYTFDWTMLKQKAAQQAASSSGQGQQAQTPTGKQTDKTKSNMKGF

Sequence of 72 kDa type IV collagenase (P08253 whole entry): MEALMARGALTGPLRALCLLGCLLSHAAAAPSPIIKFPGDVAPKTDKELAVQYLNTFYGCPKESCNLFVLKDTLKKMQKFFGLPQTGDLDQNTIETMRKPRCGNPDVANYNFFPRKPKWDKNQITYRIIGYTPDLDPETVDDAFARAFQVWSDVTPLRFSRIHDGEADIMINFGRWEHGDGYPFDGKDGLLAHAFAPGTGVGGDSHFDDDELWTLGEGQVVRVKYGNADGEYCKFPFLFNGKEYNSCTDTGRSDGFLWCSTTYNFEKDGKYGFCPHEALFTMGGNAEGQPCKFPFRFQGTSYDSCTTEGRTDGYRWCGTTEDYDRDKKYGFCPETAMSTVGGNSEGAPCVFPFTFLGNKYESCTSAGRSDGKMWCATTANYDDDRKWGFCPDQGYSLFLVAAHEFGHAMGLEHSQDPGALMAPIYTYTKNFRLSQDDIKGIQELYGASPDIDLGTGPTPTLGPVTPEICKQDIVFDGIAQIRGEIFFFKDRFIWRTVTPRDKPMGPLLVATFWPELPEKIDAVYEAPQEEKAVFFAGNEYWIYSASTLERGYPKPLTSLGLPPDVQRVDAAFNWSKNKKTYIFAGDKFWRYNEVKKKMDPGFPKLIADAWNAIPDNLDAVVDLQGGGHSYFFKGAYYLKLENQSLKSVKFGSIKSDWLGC

Structure (SMILES): COc1ccc2oc(C(=O)Nc3nc(-c4ccccn4)cs3)c(C)c2c1
- IC50 [1]: > 100 µM (inactive)
- EC50 [2]: 1.22 µM (active)
- EC50 [3]: 18.9 µM (active)
- EC50 (Streptococcus): 1.52 µM (active)
- IC50 [4]: 34.1 µM (active)
- EC50 [5]: 0.915 µM (active)
- IC50 (Prothrombin): 69.4 µM (active)

Structure (SMILES): c1ccc(-c2nc(NCCCn3ccnc3)c3ccccc3n2)cc1
- AC50 [6]: 11.2 µM (active)
- IC50 [7]: 39 µM (inactive)
- IC50 (cells): 20.1 µM (active)
- IC50 [8]: 13.9 µM (active)
- AC50 [9]: 8.78 µM (active)

Structure (SMILES): COc1ccc(C)cc1Nc1n[n+](-c2ccccc2)c(-c2ccc(SC)cc2)s1
- EC50 [10]: 15.5 µM (active)

Structure (SMILES): CC(C)c1cc(C(=O)N(C2CCCCC2)C2CCCCC2)no1
- EC50 [11]: > 50 µM (inactive)
- EC50 [12]: > 50 µM (inactive)

Structure (SMILES): CCc1nc2sc3c(c2c2nnc(SC)n12)CCC(C)C3 (stereo unspecified)
- IC50 [13]: > 99 µM (inactive)
- IC50 [14]: > 99 µM (inactive)

Structure (SMILES): Cc1c(CNCc2cccc(Br)c2)c(C(=O)O)c(C)n1Cc1ccc(F)cc1
- IC50 [15]: > 99 µM (inactive)
- IC50 [16]: > 99 µM (inactive)

Structure (SMILES): Nc1ncnc2nc3ccccc3n12
- Ki [17]: > 79.4 µM (inactive)
- Ki [18]: > 79.4 µM (inactive)
- Ki [19]: > 79.4 µM (inactive)
- Ki [20]: > 100 µM (inactive)
- Ki [21]: > 79.4 µM (inactive)
- Ki [22]: 39.8 µM (active)
- Ki [23]: 20 µM (active)
- Ki (LIM domain kinase 1): 63.1 µM (active)
- Ki [24]: > 79.4 µM (inactive)
- Ki [25]: > 100 µM (inactive)
- Ki [26]: 7.94 µM (active)
- Ki [27]: > 79.4 µM (inactive)
- Ki [28]: > 79.4 µM (inactive)
- Ki [29]: 39.8 µM (active)
- Ki (Activin receptor type-1): > 79.4 µM (inactive)
- Ki (Aurora kinase B): > 79.4 µM (inactive)
- Ki [30]: 20 µM (active)
